ChEMBL document CHEMBL1201862, “PubChem BioAssay data set” (2004)
One block for each compound: values may come before it. The source made the active and inactive calls.

How the values were obtained:
Cytochrome P450 2D6 = Cytochrome P450 2D6 (Homo sapiens, UniProt P10635);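 also: CYP2D6 member of a cytochrome P450 panel assay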
[1] = insulin promoter down-regulators in MIN6 cells, imaging, high-content screening, mouse beta cells (AID 1628); type: functional
[2] = biological target: T1, Heat shock factor protein 1 (Mus musculus, UniProt P38532); assay: inhibition of MG132-induced HSE-luciferase signal, confirmation, cell-based, NIH3T3, luminescence, dose retest (AID 2382); type: functional;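 also: NIH3T3 fibroblasts with HSF1-driven luciferase reporter stressed by proteasome inhibitor MG132; luminescence from HSF1-driven luciferase expression after 8 hours of MG132 stress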
T1 sequence (P38532 whole entry): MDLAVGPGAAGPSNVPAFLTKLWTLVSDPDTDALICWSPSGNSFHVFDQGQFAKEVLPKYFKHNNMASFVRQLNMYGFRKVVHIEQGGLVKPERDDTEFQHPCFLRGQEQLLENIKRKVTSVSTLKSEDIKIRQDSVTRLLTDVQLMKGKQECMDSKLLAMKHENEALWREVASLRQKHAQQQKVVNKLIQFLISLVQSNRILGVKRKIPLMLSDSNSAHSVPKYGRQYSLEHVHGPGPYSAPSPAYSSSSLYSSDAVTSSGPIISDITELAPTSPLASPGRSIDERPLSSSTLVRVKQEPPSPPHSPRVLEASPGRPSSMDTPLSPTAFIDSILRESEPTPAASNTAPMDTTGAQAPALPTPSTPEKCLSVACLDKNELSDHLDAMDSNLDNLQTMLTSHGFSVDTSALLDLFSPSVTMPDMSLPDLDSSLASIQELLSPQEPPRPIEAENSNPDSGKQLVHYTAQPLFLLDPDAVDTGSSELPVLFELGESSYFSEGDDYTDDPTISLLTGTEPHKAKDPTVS

[3] = cytotoxicity in MIN6 insulinoma cells, dose response, cytotoxicity control, cell-based, mouse insulinoma (AID 2122); type: functional;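 also: confirmatory high-throughput counterscreen run to flag cytotoxic compounds; mouse MIN-6 beta cells carrying an insulin promoter eGFP reporter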
INS1 = assay: beta cell apoptosis inhibitors, cytokine rescue, dose response, luminescence, retest (AID 449756); type: functional, cell-based; settings: Rattus norvegicus;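 also: cell death triggered by IL-1 beta plus TNF-alpha plus IFN-gamma mixture; protective hits raise ATP signal compared with cytokine alone wells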
[4] = biological target: T2, RNA-binding protein pos-1 (Caenorhabditis elegans, UniProt G5EF15); assay: inhibitors of POS-1/mex-3 RNA binding, dose response, biochemical, fluorescence polarization (AID 1964);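 also: purified POS-1 fused to maltose binding protein made in E. coli; potency of compounds blocking POS-1 binding to fluorescent RNA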
T2 sequence (G5EF15 whole entry): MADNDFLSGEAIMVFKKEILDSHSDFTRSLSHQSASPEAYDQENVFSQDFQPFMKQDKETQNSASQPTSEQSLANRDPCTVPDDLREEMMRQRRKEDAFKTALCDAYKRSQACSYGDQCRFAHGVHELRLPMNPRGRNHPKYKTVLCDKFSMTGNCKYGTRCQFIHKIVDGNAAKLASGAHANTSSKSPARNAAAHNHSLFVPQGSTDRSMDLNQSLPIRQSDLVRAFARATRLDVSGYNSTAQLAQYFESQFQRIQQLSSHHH

[5] = biological target: T3, Zinc finger protein mex-5 (Caenorhabditis elegans, UniProt Q9XUB2); assay: MEX-5/TCR-2 RNA interaction inhibitors, dose response, biochemical, C. elegans, fluorescence polarization (AID 1960)
T3 sequence (Q9XUB2 whole entry): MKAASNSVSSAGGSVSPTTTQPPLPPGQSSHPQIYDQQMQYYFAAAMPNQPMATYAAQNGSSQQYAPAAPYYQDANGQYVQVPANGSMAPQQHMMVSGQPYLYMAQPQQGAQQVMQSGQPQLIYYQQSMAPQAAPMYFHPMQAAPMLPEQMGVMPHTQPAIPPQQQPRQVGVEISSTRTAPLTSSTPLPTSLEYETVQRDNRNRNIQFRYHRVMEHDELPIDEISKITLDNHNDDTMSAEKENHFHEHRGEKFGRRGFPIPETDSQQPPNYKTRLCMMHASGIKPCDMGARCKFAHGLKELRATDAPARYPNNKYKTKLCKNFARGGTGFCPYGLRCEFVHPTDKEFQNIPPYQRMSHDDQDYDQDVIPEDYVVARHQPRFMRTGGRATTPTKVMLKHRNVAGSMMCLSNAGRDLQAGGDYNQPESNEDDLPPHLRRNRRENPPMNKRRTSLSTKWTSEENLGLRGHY

Keap1/Nrf2 = Keap1/Nrf2 (Homo sapiens, UniProt Q14145); assay: Keap1-Nrf2 protein-protein interaction inhibitors, dose response, biochemical, fluorescence polarization, cherry-picked samples (AID 588683)
[6] = biological target: Dual specificity tyrosine-phosphorylation-regulated kinase 1A (Rattus norvegicus, UniProt Q63470); type: biochemical, Homo sapiens
[7] = biological target: T4, Microphthalmia-associated transcription factor (Homo sapiens, UniProt O75030); assay: TRPM1 promoter luciferase signal decrease, dose response, MITF inhibitor project, cell-based, SK-MEL-5, cherry-picked, set 3 (AID 493073); type: functional
T4 sequence (O75030 whole entry): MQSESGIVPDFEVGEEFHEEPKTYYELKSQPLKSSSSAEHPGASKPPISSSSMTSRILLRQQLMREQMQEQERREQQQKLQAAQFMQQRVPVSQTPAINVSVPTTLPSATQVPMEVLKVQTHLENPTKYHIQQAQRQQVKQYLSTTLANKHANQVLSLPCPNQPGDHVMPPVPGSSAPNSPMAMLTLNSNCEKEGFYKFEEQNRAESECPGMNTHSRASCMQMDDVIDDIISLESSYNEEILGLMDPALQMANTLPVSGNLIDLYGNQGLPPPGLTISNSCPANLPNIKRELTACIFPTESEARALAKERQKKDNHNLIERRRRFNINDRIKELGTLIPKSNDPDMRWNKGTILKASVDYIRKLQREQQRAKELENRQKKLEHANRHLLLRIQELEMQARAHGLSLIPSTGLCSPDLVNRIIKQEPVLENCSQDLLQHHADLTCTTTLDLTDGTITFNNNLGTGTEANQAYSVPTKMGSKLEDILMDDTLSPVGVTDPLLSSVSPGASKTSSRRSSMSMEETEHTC

[8] = HepG2 cell cytotoxicity, dose response, cytotoxicity control for Shn3 inhibitor project, CellTiter-Glo, cherry-picked (AID 624134); type: functional, cell-based
[9] = control 3'UTR Renilla luciferase suppression, dose response, counter-screen for Shn3 inhibitor project, cell-based, Clone20-Shn3RL, cherry-picked (AID 624133); type: functional
A-375 = assay: A375 melanoma cell viability reduction, dose response, counter-screen for MITF modulator project, cherry-pick samples, set 2 (AID 540335); type: functional, cell-based; settings: Homo sapiens
[10] = biological target: T5, Ubiquitin-conjugating enzyme E2 N (Homo sapiens, UniProt P61088); type: functional;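 also: Dose-response confirmation in a TR-FRET assay detecting UBC13-driven polyubiquitin chain formation, inhibition measured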
T5 sequence (P61088 whole entry): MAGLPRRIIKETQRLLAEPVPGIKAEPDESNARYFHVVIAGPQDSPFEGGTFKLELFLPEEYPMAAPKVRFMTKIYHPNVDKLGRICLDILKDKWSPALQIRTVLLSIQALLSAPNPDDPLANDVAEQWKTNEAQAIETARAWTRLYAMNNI

[11] = Shn3 3'UTR reporter inhibitors, dose response, cell-based, Clone20 osteoblasts, firefly luciferase, cherry-picked (AID 624132); type: functional;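 also: firefly luciferase luminescence from reporter carrying the Shn3 3'UTR in osteoblasts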
H9c2 = assay: cells; type: functional, cell-based; settings: Rattus norvegicus, H9c2, Myocardium;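 also: confirmatory concentration-response retest of ultra-high-throughput screening hits for modulation of myocardial damage; cell death induced by hydrogen peroxide oxidative stress; compound pretreatment for 60 min then peroxide exposure for 2 h; potency is for protecting the cells against peroxide damage rather than for killing them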

Sequence of Cytochrome P450 2D6 (P10635 whole entry): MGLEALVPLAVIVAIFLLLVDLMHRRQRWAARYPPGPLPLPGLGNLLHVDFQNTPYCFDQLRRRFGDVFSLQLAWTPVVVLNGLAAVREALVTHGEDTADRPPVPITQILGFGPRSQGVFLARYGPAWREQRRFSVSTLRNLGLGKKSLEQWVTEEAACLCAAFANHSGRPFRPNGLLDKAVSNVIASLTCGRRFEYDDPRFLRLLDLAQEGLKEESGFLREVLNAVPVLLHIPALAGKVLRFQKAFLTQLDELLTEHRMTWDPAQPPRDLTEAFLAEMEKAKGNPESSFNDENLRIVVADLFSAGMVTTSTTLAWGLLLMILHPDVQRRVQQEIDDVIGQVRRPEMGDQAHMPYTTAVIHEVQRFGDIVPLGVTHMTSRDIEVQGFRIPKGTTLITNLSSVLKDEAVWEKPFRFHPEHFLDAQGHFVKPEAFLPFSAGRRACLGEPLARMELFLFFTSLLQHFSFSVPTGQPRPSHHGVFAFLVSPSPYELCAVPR
Sequence of Keap1/Nrf2 (Q16236 whole entry): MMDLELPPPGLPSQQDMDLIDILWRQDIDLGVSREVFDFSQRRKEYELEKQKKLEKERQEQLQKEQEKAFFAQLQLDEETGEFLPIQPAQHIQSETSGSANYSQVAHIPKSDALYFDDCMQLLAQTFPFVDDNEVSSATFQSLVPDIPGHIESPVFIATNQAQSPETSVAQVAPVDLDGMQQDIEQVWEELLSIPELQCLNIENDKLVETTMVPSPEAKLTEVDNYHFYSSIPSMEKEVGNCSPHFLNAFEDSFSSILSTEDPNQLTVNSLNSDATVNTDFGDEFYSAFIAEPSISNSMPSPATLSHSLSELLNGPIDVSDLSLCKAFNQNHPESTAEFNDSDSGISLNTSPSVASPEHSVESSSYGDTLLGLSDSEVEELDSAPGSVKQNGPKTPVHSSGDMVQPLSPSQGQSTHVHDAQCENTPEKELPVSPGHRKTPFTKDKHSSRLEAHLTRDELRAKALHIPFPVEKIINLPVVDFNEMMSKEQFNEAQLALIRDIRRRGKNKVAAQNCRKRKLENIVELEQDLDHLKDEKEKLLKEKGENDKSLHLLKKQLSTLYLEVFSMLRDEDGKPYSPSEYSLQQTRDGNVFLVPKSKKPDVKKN
Sequence of Keap1/Nrf2 (Q14145 whole entry): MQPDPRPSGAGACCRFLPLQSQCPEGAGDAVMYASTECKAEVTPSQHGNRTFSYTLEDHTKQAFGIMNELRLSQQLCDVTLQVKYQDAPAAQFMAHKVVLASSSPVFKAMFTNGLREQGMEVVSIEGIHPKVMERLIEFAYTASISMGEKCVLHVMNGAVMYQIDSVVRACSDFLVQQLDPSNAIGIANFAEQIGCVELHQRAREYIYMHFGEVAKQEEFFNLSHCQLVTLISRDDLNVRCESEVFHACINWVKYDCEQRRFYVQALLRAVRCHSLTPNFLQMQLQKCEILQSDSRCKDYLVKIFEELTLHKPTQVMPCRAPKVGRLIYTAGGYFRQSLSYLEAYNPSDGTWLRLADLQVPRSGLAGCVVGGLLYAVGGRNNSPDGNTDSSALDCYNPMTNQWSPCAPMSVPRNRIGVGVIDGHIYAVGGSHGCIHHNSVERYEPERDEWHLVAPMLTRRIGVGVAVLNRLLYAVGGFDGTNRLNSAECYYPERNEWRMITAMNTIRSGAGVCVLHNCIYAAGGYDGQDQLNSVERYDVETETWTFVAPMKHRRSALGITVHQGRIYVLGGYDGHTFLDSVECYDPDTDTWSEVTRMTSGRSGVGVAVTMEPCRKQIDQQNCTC

Structure (SMILES): O=C(O)c1nn(-c2ccccc2-c2nnc(O)nc2O)c(=O)[nH]c1=O
AC50 (Cytochrome P450 2D6): inconclusive

Structure (SMILES): Cc1ccc(Cn2c(=N)n(CC(=O)c3ccccc3)c3ccccc32)cc1
IC50 [1]: 1.8 µM (active) | EC50 [2]: > 195 µM (not active) | IC50 [3]: 1.86 µM (active) | AC50 (INS1): 7.43 µM (active)

Structure (SMILES): CC(Oc1cccc(Br)c1)C(=O)NNC(=O)c1ccccn1 (stereo not drawn)
AC50 [7]: 7.18 µM (active) | AC50 [8]: 49.4 µM (active) | AC50 [9]: 3.19 µM (active) | AC50 (A-375): 41.2 µM (active) | IC50 [10]: > 20 µM (inactive) | AC50 [11]: 3.36 µM (active) | IC50 (H9c2): > 79 µM (inactive)

Further lines, results first:

AC50 (Cytochrome P450 2D6): inconclusive
Structure (SMILES): c1ccc(C2OCC3(CO2)COC(c2ccccc2)OC3)cc1 (stereo not drawn)

EC50 [4]: 158 µM (inconclusive) | EC50 [5]: 177 µM (inconclusive) | AC50 (Keap1/Nrf2): > 52 µM (inactive)
Structure (SMILES): CCCCOc1ccc(/C=C2/Sc3ccccc3C2=O)cc1

AC50 [6]: 7.77 µM (active)
Structure (SMILES): O=C(Cc1c(F)cccc1Cl)Nc1nc2ccccc2s1

AC50 [6]: 3.08 µM (active)
Structure (SMILES): COc1cc(N2CN=c3s/c(=C\c4ccccn4)c(=O)n3C2)cc(OC)c1OC
